Assays:
HeLa [1] = test: Cytotoxicity against human HeLa cells assessed as inhibition of cell viability after 48 hrs by MTT assay; assay type: cell-based
Aspergillus brasiliensis = test: Antifungal activity against Aspergillus brasiliensis ATCC 16404 assessed as growth inhibition by M7-A6 method; assay type: functional
Bacillus subtilis = test: Antibacterial activity against Bacillus subtilis ATCC 6633 assessed as growth inhibition by M7-A6 method; assay type: functional
Candida parapsilosis = test: Antifungal activity against Candida parapsilosis ATCC 22019 assessed as growth inhibition by M7-A6 method; assay type: functional; conditions: Lodderomyces parapsilosis
Micrococcus luteus [2] = test: Antibacterial activity against Micrococcus luteus ATCC 9341 assessed as growth inhibition by M7-A6 method; assay type: functional
Pseudomonas aeruginosa [3] = test: Antibacterial activity against Pseudomonas aeruginosa ATCC 9027 assessed as growth inhibition by M7-A6 method; assay type: functional
A549 [4] = test: Cytotoxicity against human A549 cells assessed as inhibition of cell viability after 72 hrs by MTT assay; assay type: cell-based; conditions: A549, 72 h
Micrococcus luteus [5] = test: Antibacterial activity against Micrococcus luteus ATCC 10240 assessed as growth inhibition by M7-A6 method; assay type: functional
[6] = Cytotoxicity against human HeLa cells assessed as cell viability at 10 ug/ml after 48 hrs by MTT assay; assay type: cell-based; conditions: read-out: Activity
[7] = Cytotoxicity against human A549 cells assessed as cell viability at 10 ug/ml after 72 hrs by MTT assay; assay type: cell-based; conditions: read-out: Activity
[8] = Cytotoxicity against human A549 cells assessed as cell viability at 50 ug/ml after 48 hrs by MTT assay; assay type: cell-based; conditions: read-out: Activity
Staphylococcus aureus [9] = test: Antibacterial activity against penicillin, erythromycin, amikacin, clindamycin, ciprofloxacin, methicillin-resistant Staphylococcus aureus 573/12 assessed as growth inhibition by M7-A6 method; assay type: functional
Candida albicans [10] = test: Antifungal activity against Candida albicans ATCC 2091 assessed as growth inhibition by M7-A6 method; assay type: functional
Staphylococcus aureus [11] = test: Antibacterial activity against penicillin, erythromycin, amikacin, clindamycin, ciprofloxacin, methicillin-resistant Staphylococcus aureus 572/12 assessed as growth inhibition by M7-A6 method; assay type: functional
[12] = Cytotoxicity against human HeLa cells assessed as cell viability at 200 ug/ml after 72 hrs by MTT assay; assay type: cell-based; conditions: read-out: Activity
Candida albicans [13] = test: Antifungal activity against Candida albicans ATCC 10231 assessed as growth inhibition by M7-A6 method; assay type: functional
A549 [14] = test: Cytotoxicity against human A549 cells assessed as inhibition of cell viability after 48 hrs by MTT assay; assay type: cell-based; conditions: A549, 48 h
[15] = Cytotoxicity against human HeLa cells assessed as cell viability at 50 ug/ml after 48 hrs by MTT assay; assay type: cell-based; conditions: read-out: Activity
[16] = Cytotoxicity against human HeLa cells assessed as cell viability at 100 ug/ml after 72 hrs by MTT assay; assay type: cell-based; conditions: read-out: Activity
Staphylococcus aureus [17] = test: Antibacterial activity against erythromycin, amikacin, clindamycin, ciprofloxacin, methicillin-resistant Staphylococcus aureus 15K/11 assessed as growth inhibition by M7-A6 method; assay type: functional
[18] = Cytotoxicity against human HeLa cells assessed as cell viability at 200 ug/ml after 48 hrs by MTT assay; assay type: cell-based; conditions: read-out: Activity
[19] = Cytotoxicity against human A549 cells assessed as cell viability at 50 ug/ml after 72 hrs by MTT assay; assay type: cell-based; conditions: read-out: Activity
Staphylococcus aureus [20] = test: Antibacterial activity against Staphylococcus aureus ATCC 6538P assessed as growth inhibition by M7-A6 method; assay type: functional
[21] = Cytotoxicity against human A549 cells assessed as cell viability at 200 ug/ml after 72 hrs by MTT assay; assay type: cell-based; conditions: read-out: Activity
[22] = Cytotoxicity against human A549 cells assessed as cell viability at 100 ug/ml after 72 hrs by MTT assay; assay type: cell-based; conditions: read-out: Activity
[23] = Cytotoxicity against human A549 cells assessed as cell viability at 200 ug/ml after 48 hrs by MTT assay; assay type: cell-based; conditions: read-out: Activity
Staphylococcus aureus [24] = test: Antibacterial activity against penicillin, erythromycin, clindamycin, ciprofloxacin, methicillin-resistant Staphylococcus aureus 19K/11 assessed as growth inhibition by M7-A6 method; assay type: functional
[25] = Cytotoxicity against human HeLa cells assessed as cell viability at 10 ug/ml after 72 hrs by MTT assay; assay type: cell-based; conditions: read-out: Activity
Escherichia coli = test: Antibacterial activity against Escherichia coli ATCC 8739 assessed as growth inhibition by M7-A6 method; assay type: functional
[26] = Cytotoxicity against human A549 cells assessed as cell viability at 100 ug/ml after 48 hrs by MTT assay; assay type: cell-based; conditions: read-out: Activity
[27] = Cytotoxicity against human A549 cells assessed as cell viability at 10 ug/ml after 48 hrs by MTT assay; assay type: cell-based; conditions: read-out: Activity
Staphylococcus aureus [28] = test: Antibacterial activity against penicillin, erythromycin, amikacin, clindamycin, ciprofloxacin, methicillin-resistant Staphylococcus aureus 495/11 assessed as growth inhibition by M7-A6 method; assay type: functional
Saccharomyces cerevisiae = test: Antifungal activity against Saccharomyces cerevisiae ATCC 9763 assessed as growth inhibition by M7-A6 method; assay type: functional
[29] = Cytotoxicity against human HeLa cells assessed as cell viability at 100 ug/ml after 48 hrs by MTT assay; assay type: cell-based; conditions: read-out: Activity
Staphylococcus aureus [30] = test: Antibacterial activity against Staphylococcus aureus ATCC 6538 assessed as growth inhibition by M7-A6 method; assay type: functional
Pseudomonas aeruginosa [31] = test: Antibacterial activity against Pseudomonas aeruginosa ATCC 15442 assessed as growth inhibition by M7-A6 method; assay type: functional
[32] = Cytotoxicity against human HeLa cells assessed as cell viability at 50 ug/ml after 72 hrs by MTT assay; assay type: cell-based; conditions: read-out: Activity
Bacillus cereus = test: Antibacterial activity against Bacillus cereus ATCC 11778 assessed as growth inhibition by M7-A6 method; assay type: functional
HeLa [33] = test: Cytotoxicity against human HeLa cells assessed as inhibition of cell viability after 72 hrs by MTT assay; assay type: cell-based

CCCCNC(=N)c1ccc(OCCSCCOc2ccc(C(=N)NCCCC)cc2)cc1.Cl
IC50 (HeLa [1]): > 100 µg/mL
MIC (Aspergillus brasiliensis): 14 µM
MIC (Bacillus subtilis): 14 µM
MIC (Candida parapsilosis): 3.6 µM
MIC (Micrococcus luteus [2]): 2.6 µM
MIC (Pseudomonas aeruginosa [3]): > 1810 µM
IC50 (A549 [4]): ≥ 50 µg/mL
MIC (Micrococcus luteus [5]): 3.6 µM
viability at 48 h, 10 ug/ml [6]: 91.8%
viability at 72 h, 10 ug/ml [7]: 67.6%
viability at 48 h, 50 ug/ml [8]: 68.8%
MIC (Staphylococcus aureus [9]): 14 µM
MIC (Candida albicans [10]): 3.6 µM
MIC (Staphylococcus aureus [11]): 230 µM
viability at 72 h, 200 ug/ml [12]: 18.5%
MIC (Candida albicans [13]): 3.6 µM
IC50 (A549 [14]): > 100 µg/mL
viability at 48 h, 50 ug/ml [15]: 83.4%
viability at 72 h, 100 ug/ml [16]: 57.2%
MIC (Staphylococcus aureus [17]): 230 µM
viability at 48 h, 200 ug/ml [18]: 25.8%
viability at 72 h, 50 ug/ml [19]: 50.5%
MIC (Staphylococcus aureus [20]): 27 µM
viability at 72 h, 200 ug/ml [21]: 42.2%
viability at 72 h, 100 ug/ml [22]: 48.5%
viability at 48 h, 200 ug/ml [23]: 59.1%
MIC (Staphylococcus aureus [24]): 110 µM
viability at 72 h, 10 ug/ml [25]: 99%
MIC (Escherichia coli): 110 µM
viability at 48 h, 100 ug/ml [26]: 62.3%
viability at 48 h, 10 ug/ml [27]: 89.3%
MIC (Staphylococcus aureus [28]): 230 µM
MIC (Saccharomyces cerevisiae): 27 µM
viability at 48 h, 100 ug/ml [29]: 63.7%
MIC (Staphylococcus aureus [30]): 14 µM
MIC (Pseudomonas aeruginosa [31]): > 1810 µM
viability at 72 h, 50 ug/ml [32]: 88.3%
MIC (Bacillus cereus): 450 µM
IC50 (HeLa [33]): > 100 µg/mL

Cl.N=C(NC1CCCCC1)c1ccc(OCCSCCOc2ccc(C(=N)NC3CCCCC3)cc2)cc1
IC50 (HeLa [1]): > 100 µg/mL
MIC (Aspergillus brasiliensis): 3.2 µM
MIC (Bacillus subtilis): 12 µM
MIC (Candida parapsilosis): 3.2 µM
MIC (Micrococcus luteus [2]): 3.2 µM
MIC (Pseudomonas aeruginosa [3]): > 1630 µM
IC50 (A549 [4]): ≥ 50 µg/mL
MIC (Micrococcus luteus [5]): 0.81 µM
viability at 48 h, 10 ug/ml [6]: 95.3%
viability at 72 h, 10 ug/ml [7]: 69.6%
viability at 48 h, 50 ug/ml [8]: 74.9%
MIC (Staphylococcus aureus [9]): 12 µM
MIC (Candida albicans [10]): 3.2 µM
MIC (Staphylococcus aureus [11]): 100 µM
viability at 72 h, 200 ug/ml [12]: 12.3%
MIC (Candida albicans [13]): 3.2 µM
IC50 (A549 [14]): > 100 µg/mL
viability at 48 h, 50 ug/ml [15]: 95.8%
viability at 72 h, 100 ug/ml [16]: 66.9%
MIC (Staphylococcus aureus [17]): 100 µM
viability at 48 h, 200 ug/ml [18]: 15.3%
viability at 72 h, 50 ug/ml [19]: 59.2%
MIC (Staphylococcus aureus [20]): 3.2 µM
viability at 72 h, 200 ug/ml [21]: 54.3%
viability at 72 h, 100 ug/ml [22]: 59.7%
viability at 48 h, 200 ug/ml [23]: 61.4%
MIC (Staphylococcus aureus [24]): 12 µM
viability at 72 h, 10 ug/ml [25]: 94.6%
MIC (Escherichia coli): 100 µM
viability at 48 h, 100 ug/ml [26]: 63.9%
viability at 48 h, 10 ug/ml [27]: 84.6%
MIC (Staphylococcus aureus [28]): 200 µM
MIC (Saccharomyces cerevisiae): 24 µM
viability at 48 h, 100 ug/ml [29]: 70.8%
MIC (Staphylococcus aureus [30]): 3.2 µM
MIC (Pseudomonas aeruginosa [31]): > 1630 µM
viability at 72 h, 50 ug/ml [32]: 96.6%
MIC (Bacillus cereus): 100 µM
IC50 (HeLa [33]): > 100 µg/mL
